From US9676715B2, “Bis-indolic derivatives, a process for preparing the same and their uses as a drug” (UNIVERSITE JOSEPH FOURIER, priority 2011, dated 2017)
Values after ≈ are worked out from the molar mass of the structure shown.

Key:
S. pneumoniae ATCC 6303 = assay: MIC, microdilution method (9.1); assay type: cell-based, Streptococcus pneumoniae; conditions: Streptococcus pneumoniae, ATCC6303, 10% sheep blood, 5% CO2, 18 h, read-out: MIC
How it was run: (§1)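 Broth microdilution per CLSI M07-A8 in Mueller Hinton broth, final inoculum 5×10^5 CFU/ml. Indolic compounds tested as two-fold serial dilutions, 0.50-128 mg/L final. Plates incubated at 37° C. in ambient air; fastidious species received 10% sheep blood and 5% CO2.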

[1] = tested on: S. agalactiae (group B) ATCC 12400; assay: MIC, microdilution method (9.1); assay type: cell-based, Streptococcus agalactiae; conditions: Streptococcus agalactiae, ATCC12400, 18 h, read-out: MIC
How it was run: (§2)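 Compound concentrations tested: 0.50-128 mg/L final, two-fold steps. Medium was Mueller Hinton broth; final inoculum 5×10^5 CFU/ml; incubation at 37° C. without CO2 enrichment.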

E. faecium CIP 54.32 = assay: MIC, microdilution method (9.1); assay type: cell-based, Enterococcus faecium; conditions: Enterococcus faecium, CIP54, 18 h, read-out: MIC
How it was run: as §2

[2] = tested on: S. aureus ATCC 33592 (MRSA); assay: MIC, microdilution method (9.1); assay type: cell-based, Staphylococcus aureus; conditions: Staphylococcus aureus, read after 18 h, read-out: MIC
How it was run: as §2

S. aureus ATCC 25923 = assay: MIC, microdilution method (9.1); assay type: cell-based, Staphylococcus aureus; conditions: Staphylococcus aureus, ATCC25923, read after 18 h, read-out: MIC
How it was run: as §2

S. aureus CIP 103428 = assay: MIC, microdilution method (9.1); assay type: cell-based, Staphylococcus aureus; conditions: Staphylococcus aureus, CIP103428, read after 18 h, read-out: MIC
How it was run: as §2

S. aureus CIP 65.6 = assay: MIC, microdilution method (9.1); assay type: cell-based, Staphylococcus aureus; conditions: Staphylococcus aureus, CIP65, read after 18 h, read-out: MIC
How it was run: as §2

S. aureus ATCC 9144 = assay: MIC, microdilution method (9.1); assay type: cell-based, Staphylococcus aureus; conditions: Staphylococcus aureus, ATCC9144, read after 18 h, read-out: MIC
How it was run: as §2

[3] = tested on: S. aureus CIP 65.25 (MRSA); assay: MIC, microdilution method (9.1); assay type: cell-based, Staphylococcus aureus; conditions: Staphylococcus aureus, read after 18 h, read-out: MIC
How it was run: as §2

S. aureus SA-1199B = assay: MIC, microdilution method (9.1); assay type: cell-based, Staphylococcus aureus; conditions: Staphylococcus aureus, SA1199B, 18 h
How it was run: as §2

S. aureus ATCC 29213 = assay: MIC, microdilution method (9.1); assay type: cell-based, Staphylococcus aureus; conditions: Staphylococcus aureus, ATCC29213, read after 18 h, read-out: MIC
How it was run: as §2

[4] = tested on: S. aureus ATCC 106414 (VISA); assay: MIC, microdilution method (9.1); assay type: cell-based, Staphylococcus aureus; conditions: Staphylococcus aureus, read after 18 h, read-out: MIC
How it was run: as §2

S. aureus ATCC 6538 = assay: MIC, microdilution method (9.1); assay type: cell-based, Staphylococcus aureus; conditions: Staphylococcus aureus, ATCC6538, read after 18 h, read-out: MIC
How it was run: as §2

[5] = tested on: HCT116 (human colon tumor); assay: In vitro cytotoxicity; assay type: cell-based; conditions: read-out: % of cellular growth inhibition; for inhibition at 10 µM: HCT-116, 10^−5 M; for inhibition at 1 µM: HCT-116, 10^−6 M
Description: In vitro cytotoxicity was assayed on three cell lines—KB (human mouth carcinoma), MCR5 (human lung fibroblast) and HCT116 (human colon tumor). Results are presented in table IV as % of cellular growth inhibition in presence of 10^−5 M and 10^−6 M of the tested bis-indolic derivatives.

E. faecalis ATCC 29212 = assay: MIC, microdilution method (9.1); assay type: cell-based, Enterococcus faecalis; conditions: Enterococcus faecalis, ATCC29212, 18 h, read-out: MIC
How it was run: as §2

S. pneumoniae ATCC 49619 = assay: MIC, microdilution method (9.1); assay type: cell-based; conditions: Streptococcus pneumoniae, ATCC49619, 10% sheep blood, 5% CO2, 18 h
How it was run: as §1

[6] = tested on: Pseudomonas aeruginosa CIP 5933; assay: MIC, microdilution method (9.1); assay type: cell-based; conditions: CIP5933, 18 h, read-out: MIC
How it was run: as §2

[7] = tested on: Bacillus subtilis CIP 5262; assay: MIC, microdilution method (9.1); assay type: cell-based; conditions: CIP5262, 18 h, read-out: MIC
How it was run: as §2

[8] = tested on: Enterobacter cloacae ATCC13047; assay: MIC, microdilution method (9.1); assay type: cell-based; conditions: 18 h
How it was run: as §2

[9] = tested on: Listeria innocua CIP 80.11; assay: MIC, microdilution method (9.1); assay type: cell-based; conditions: CIP80, 18 h, read-out: MIC
How it was run: as §2

[10] = tested on: Klebsiella pneumoniae API ATCC 35657; assay: MIC, microdilution method (9.1); assay type: cell-based; conditions: ATCC35657, 18 h, read-out: MIC
How it was run: as §2

[11] = tested on: Haemophilus influenzae ATCC 49766; assay: MIC, microdilution method (9.1); assay type: cell-based; conditions: ATCC49766; Haemophilus influenzae ATCC 49766; 10% sheep blood, 5% CO2; 18 h; read-out: MIC
How it was run: as §1

[12] = tested on: Escherichia coli ATCC 25922; assay: MIC, microdilution method (9.1); assay type: cell-based; conditions: ATCC25922, 18 h
How it was run: as §2

[13] = tested on: Acinetobacter baumanii ATCC 19606; assay: MIC, microdilution method (9.1); assay type: cell-based; conditions: Acinetobacter baumannii, ATCC19606, 18 h, read-out: MIC
How it was run: as §2

[14] = tested on: Serratia marcescens CIP 103551; assay: MIC, microdilution method (9.1); assay type: cell-based; conditions: CIP103551, 18 h
How it was run: as §2

[15] = tested on: S. pyogenes (group A) CIP 104226; assay: MIC, microdilution method (9.1); assay type: cell-based, Streptococcus pyogenes; conditions: Streptococcus pyogenes, CIP104226, 18 h, read-out: MIC
How it was run: as §2

[16] = tested on: HCT116 (human colon tumor); assay: In vitro cytotoxicity; assay type: cell-based; conditions: HCT-116, HCT116, from 100 μM to 0.005 μM in DMSO, duplicate

Compound | MIC (S. pneumoniae ATCC 6303) [µg/mL] | MIC [1] [µg/mL] | MIC (E. faecium CIP 54.32) [µg/mL] | MIC [2] [µg/mL] | MIC (S. aureus ATCC 25923) [µg/mL] | MIC (S. aureus CIP 103428) [µg/mL] | MIC (S. aureus CIP 65.6) [µg/mL] | MIC (S. aureus ATCC 9144) [µg/mL] | MIC [3] [µg/mL] | MIC (S. aureus ATCC 29213) [µg/mL] | MIC [4] [µg/mL] | MIC (S. aureus ATCC 6538) [µg/mL] | MIC [6] [µg/mL] | MIC [8] [µg/mL] | MIC [10] [µg/mL] | MIC [12] [µg/mL] | MIC [13] [µg/mL] | MIC [14] [µg/mL] | IC50 ([16]; first value) [µM] | IC50 ([16]; second value) [µM] | also measured
CC(C)(C)OC(=O)NCC(NC(=O)c1c[nH]c2ccc(Br)cc12)c1c[nH]c2ccc(Br)cc12 (centres unmarked) [Compound 3f, tert-Butyl(2-(5-bromo-1H-indol-3-yl)-2-(5-bromo-1H-indolyl-3-carboxamido)ethyl)carbamate] | 32 (≈ 55.5 µM) | 32 (≈ 55.5 µM) | > 128 | 2 (≈ 3.47 µM) | 1 (≈ 1.74 µM) | 1 (≈ 1.74 µM) | 1 (≈ 1.74 µM) | 1 (≈ 1.74 µM) | 2 (≈ 3.47 µM) | 1 (≈ 1.74 µM) | 2 (≈ 3.47 µM) | 1 (≈ 1.74 µM) | > 128 | > 128 | > 128 | > 128 | > 128 | > 128 | 5.24 | 5.05 | MIC (S. aureus SA-1199B): 2 µg/mL (≈ 3.47 µM); inhibition at 10 µM [5]: 89 ± 9%; inhibition at 1 µM [5]: 0%; MIC (E. faecalis ATCC 29212): > 128 µg/mL; MIC (S. pneumoniae ATCC 49619): 32 µg/mL (≈ 55.5 µM); MIC [7]: 32 µg/mL (≈ 55.5 µM); MIC [9]: > 128 µg/mL; MIC [11]: 32 µg/mL (≈ 55.5 µM); MIC [15]: 32 µg/mL (≈ 55.5 µM)
CC(NC(=O)c1c[nH]c2ccc(Br)cc12)c1c[nH]c2ccc(Br)cc12 (centres unmarked) [Compound 4, 5-Bromo-N-(1-(5-bromo-1H-indol-3-yl)ethyl)-1H-indole-3-carboxamide] |  |  |  | 2 (≈ 4.34 µM) | 2 (≈ 4.34 µM) | 2 (≈ 4.34 µM) | 2 (≈ 4.34 µM) | 2 (≈ 4.34 µM) | 2 (≈ 4.34 µM) | 2 (≈ 4.34 µM) | 2 (≈ 4.34 µM) | 2 (≈ 4.34 µM) | > 128 | > 128 | > 128 | > 128 | > 128 | > 128 | 6.43 | 10 | MIC (S. aureus SA-1199B): 2 µg/mL (≈ 4.34 µM); inhibition at 10 µM [5]: 12 ± 1%; inhibition at 1 µM [5]: 0%
Cn1cc(C(=O)NC(CNC(=O)OC(C)(C)C)c2c[nH]c3ccc(Br)cc23)c2cc(Br)ccc21 (centres unmarked) [Compound 7, tert-Butyl (2-(5-bromo-1-methyl-1H-indole-3-carboxamido)-2-(5-bromo-1H-indol-3-yl)ethyl) carbamate] | > 128 | > 128 | > 128 | > 128 | > 128 | > 128 | > 128 | > 128 | > 128 | > 128 | > 128 | > 128 | > 128 | > 128 | > 128 | > 128 | > 128 | > 128 | 10.1 | 13.1 | MIC (S. aureus SA-1199B): > 128 µg/mL; inhibition at 10 µM [5]: 35 ± 3%; inhibition at 1 µM [5]: 8%; MIC (E. faecalis ATCC 29212): > 128 µg/mL; MIC (S. pneumoniae ATCC 49619): > 128 µg/mL; MIC [7]: > 128 µg/mL; MIC [9]: > 128 µg/mL; MIC [11]: > 128 µg/mL; MIC [15]: > 128 µg/mL
NCCCCNC(=O)C(NC(=O)c1c[nH]c2ccc(Br)cc12)c1c[nH]c2ccc(Br)cc12 (centres unmarked) [Compound 16, N-(2-((4-Aminobutyl)amino)-1-(5-bromo-1H-indol-3-yl)-2-oxoethyl)-5-bromo-1H-indole-3-carboxamide] | > 128 | > 128 | > 128 | 8 (≈ 14.3 µM) | 8 (≈ 14.3 µM) | 8 (≈ 14.3 µM) | 8 (≈ 14.3 µM) | 8 (≈ 14.3 µM) | 8 (≈ 14.3 µM) | 8 (≈ 14.3 µM) | 8 (≈ 14.3 µM) | 8 (≈ 14.3 µM) | 32 (≈ 57 µM) | 16 (≈ 28.5 µM) | > 32 | 16 (≈ 28.5 µM) | > 32 | > 32 | 52.9 | 42.8 | MIC (E. faecalis ATCC 29212): > 128 µg/mL; MIC (S. pneumoniae ATCC 49619): > 128 µg/mL; MIC [7]: > 128 µg/mL; MIC [9]: > 128 µg/mL; MIC [11]: > 128 µg/mL; MIC [15]: > 128 µg/mL
